Results from the supplement of paper PMC10307832.

Key:
Assay in all cases: relative viability (nuclei count vs DMSO), 5 days (fraction); higher = more cells survive
[1] = test system: NCI-H1915
Outline: (§1)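 A single step with final 0.05% Triton X-100, 1% formaldehyde and 1 ug/ml Hoechst fixed the cells and stained nuclei 5 days after treatment. Lung cancer cell lines in 1536-well plates had been treated by pin tool the day after seeding with one drug alone or a fixed anchor-drug dose plus five library-drug doses (not always all listed) in √10 steps, and nuclei were counted on 4× images. Relative viability is the ratio of nuclei in treated wells to nuclei in vehicle wells, taken as the median of duplicate plates.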

[2] = test system: NCI-H1975
Outline: as §1

[3] = test system: NCI-H2023
Outline: as §1

[4] = test system: NCI-H2342
Outline: as §1

[5] = test system: NCI-H2347
Outline: as §1

[6] = test system: NCI-H2405
Outline: as §1

[7] = test system: NCI-H520
Outline: as §1

[8] = test system: NCI-H838
Outline: as §1

[9] = test system: SW 1573
Outline: as §1

[10] = test system: SW 900
Outline: as §1

[11] = test system: UMC-11
Outline: as §1

For `Cc1cn(-c2cc(NC(=O)c3ccc(C)c(Nc4nccc(-c5cccnc5)n4)c3)cc(C(F)(F)F)c2)cn1` [Nilotinib] + Cc1nc(Nc2ncc(C(=O)Nc3c(C)cccc3Cl)s2)cc(N2CCN(CCO)CC2)n1 [Dasatinib] (partner 0.075 µM), the relative viability ([1]; first compound 0.001 µM) was 0.324, the relative viability ([1]; first compound 0.003162 µM) was 0.314 and the relative viability ([1]; first compound 0.01 µM) was 0.354. The relative viability ([1]; first compound 0.03162 µM) was 0.27, the relative viability ([1]; first compound 0.1 µM) was 0.141 and the relative viability ([2]; first compound 0.001 µM) was 0.312. The relative viability ([2]; first compound 0.003162 µM) was 0.39, the relative viability ([2]; first compound 0.01 µM) was 0.309 and the relative viability ([2]; first compound 0.03162 µM) was 0.318. For the same compound, the relative viability ([2]; first compound 0.1 µM) was 0.209, the relative viability ([3]; first compound 0.001 µM) was 0.471 and the relative viability ([3]; first compound 0.003162 µM) was 0.569. For the same compound, the relative viability ([3]; first compound 0.01 µM) was 0.828, the relative viability ([3]; first compound 0.03162 µM) was 0.418 and the relative viability ([3]; first compound 0.1 µM) was 0.405. For the same compound, the relative viability ([4]; first compound 0.001 µM) was 0.277, the relative viability ([4]; first compound 0.003162 µM) was 0.303 and the relative viability ([4]; first compound 0.01 µM) was 0.302. The relative viability ([4]; first compound 0.03162 µM) was 0.273, the relative viability ([4]; first compound 0.1 µM) was 0.298 and the relative viability ([5]; first compound 0.001 µM) was 0.302. It also gave a relative viability ([5]; first compound 0.003162 µM) of 0.344, a relative viability ([5]; first compound 0.01 µM) of 0.344 and a relative viability ([5]; first compound 0.03162 µM) of 0.267. For the same compound, the relative viability ([5]; first compound 0.1 µM) was 0.264, the relative viability ([6]; first compound 0.001 µM) was 0.219 and the relative viability ([6]; first compound 0.003162 µM) was 0.205. For the same compound, the relative viability ([6]; first compound 0.01 µM) was 0.214, the relative viability ([6]; first compound 0.03162 µM) was 0.221 and the relative viability ([6]; first compound 0.1 µM) was 0.207. For the same compound, the relative viability ([7]; first compound 0.001 µM) was 0.224, the relative viability ([7]; first compound 0.003162 µM) was 0.171 and the relative viability ([7]; first compound 0.01 µM) was 0.198. It also gave a relative viability ([7]; first compound 0.03162 µM) of 0.156, a relative viability ([7]; first compound 0.1 µM) of 0.147 and a relative viability ([8]; first compound 0.001 µM) of 0.279. For the same compound, the relative viability ([8]; first compound 0.003162 µM) was 0.302, the relative viability ([8]; first compound 0.01 µM) was 0.278 and the relative viability ([8]; first compound 0.03162 µM) was 0.268. The relative viability ([8]; first compound 0.1 µM) was 0.291, the relative viability ([9]; first compound 0.001 µM) was 0.398 and the relative viability ([9]; first compound 0.003162 µM) was 0.455. It also gave a relative viability ([9]; first compound 0.01 µM) of 0.749, a relative viability ([9]; first compound 0.03162 µM) of 0.234 and a relative viability ([9]; first compound 0.1 µM) of 0.261. The relative viability ([10]; first compound 0.001 µM) was 0.538, the relative viability ([10]; first compound 0.003162 µM) was 0.617 and the relative viability ([10]; first compound 0.01 µM) was 0.564. It also gave a relative viability ([10]; first compound 0.03162 µM) of 0.442, a relative viability ([10]; first compound 0.1 µM) of 0.315 and a relative viability ([11]; first compound 0.001 µM) of 0.41. For the same compound, the relative viability ([11]; first compound 0.003162 µM) was 0.655, the relative viability ([11]; first compound 0.01 µM) was 0.649 and the relative viability ([11]; first compound 0.1 µM) was 0.247.
